The record followed here is patent publication US10266499B2, “Imidazole derivatives as prodrugs of diclofenac” (priority 2014, dated 2019).

Data set [1] deals with osteoarthritis pain induced by a single injection of MIA. Nature of the data set: Monosodium iodoacetate (MIA) model of osteoarthritis, joint compression thresholds. Conditions: for mean joint compression thresholds compared to the vehicle group: 0.3 mg intra-articular; for reversal of osteoarthritis pain compared to vehicle treated animals: single intra-articular administration of 0.3 mg. The data set is classed as in vivo, Sprague-Dawley rats. An excerpt:
Osteoarthritis is the most common form of joint disease. Nearly one third of adults in the United States suffer from osteoarthritis and it is the most common cause of disability in adults in the United States. The monosodium iodoacetate (MIA) model of osteoarthritis described here produces changes in the structure and integrity of the affected cartilage that is very similar to what is seen in human osteoarthritis. Sodium iodoacetate is a metabolic inhibitor that, when injected into the joint space, selectively kills chondrocytes, the cells that form cartilage. Over a period of 2-3 weeks, the loss of cartilage produces a state highly analogous to human osteoarthritis characterized by joint instability, loss of cartilage, and decreased bone quality around the affected joint. These physiological changes are also accompanied by pain in the affected joint.
In this study, osteoarthritis was induced by a single injection of MIA (2 mg) into the synovium of the left knee, which results in increased sensitivity to pressure. For this particular study, the test compounds were given 14 days post-MIA injection to determine if the test compound can reduce the sensitivity.
• Vehicle (0.01% Tween 80 in phosphate buffer) administered intra-articularly at a dose volume of 30 μl on day 0. • Test articles DPX-1-0008, DPX-1-0011, DPX-1-0018, DPX-1-0020, DPX-1-0023, and DPX-1-0024, administered intra-articularly at a dose of 0.3 mg on day 0. • Diclofenac, administered orally at a dose of 10 mg/kg on day 8 to the vehicle group. Methods
A total of 82 male, Sprague-Dawley rats underwent MIA injection with the goal of having 70 animals available for the pharmacology treatment due to 15% failure of developing a pain state. Fourteen days after MIA injection, animals met the inclusion criteria were assigned to one of seven groups (vehicle, test article DPX-1-0008, DPX-1-0011, DPX-1-0018, DPX-1-0020, DPX-1-0023, and DPX-1-0024) and received the assigned treatment. Joint compression thresholds were assessed prior to MIA injection, prior to dosing with control/test articles, and 1, 2, 4, and 7 days post-dosing. Diclofenac served as the positive control for the study. On day 8, animals in the vehicle group received diclofenac (10 mg/kg, PO) and joint compression were assessed prior to, 1 and 2 hours after dosing for all the animals. All animals were euthanized on day 8 following the behavioral assessment.

Data set [2] is described as follows: Solubility in 67 mM phosphate buffer pH 7.4 and in hydrochloride solutions at 37° C. The data set is classed as physicochemical. Conditions: for solubility thermodynamic: 37 °C, thermodynamic from solid, read-out: S. On the procedure: The determination of the solubility of a prodrug at different pH values of interest according to the present invention is carried by adding excess solid prodrug to a container containing a buffer solution with well-defined pH. The mixture is rotated at constant temperature until an equilibrium between solid prodrug and prodrug in solution has established (that is until the prodrug concentration in the supernatant remains constant). At each measurement the pH of the supernatant is controlled and, if needed, adjusted to the desired pH. In a similar manner the solubility of a prodrug in a tissue fluid including the synovial fluid can be determined. The latter procedure comprises a simple way of testing if the solubility at the selected lower pH is indeed at least 100 times higher than the corresponding solubility in the physiological fluid it is injected into. […] For instance, a decrease in pH from pH 7.4 to 2.0 will result in a 1000-fold increase in the solubility of a base with a pKa value of 5, whereas the solubility will increase by a factor of about 9618 for a base with a pKa value of 6. These predicted alterations in pH dependent solubilities can be calculated from the expression: St=S0*(1+10^pKa-pH) where St is the total solubility at a given pH and S0 is the solubility of the neutral form of the prodrug.
A surplus of prodrug was added to either PBS pH 7.4 or H2O. 0.1 M HCl was added to the H2O to decrease pH to around 3-4. The mixtures were rotated at 37° C. and a sample was withdrawn after approximately 24 and 48 hours or later. The withdrawn sample was filtered through a 0.45 μm Millex®-HV (Millipore, Japan) low protein binding filter (the first 0.5 mL discarded) and a known volume of the sample was diluted. The pH 7.4 samples were diluted with PBS and the acidic samples with mobile phase A (section 2.5). A standard dissolved in PBS was made for the pH 7.4 samples and a standard dissolved in mobile phase A for the acidic samples. The PBS standards used for the standard curves were treated like the samples to avoid false results caused by adsorption. The standard curves were made to cover the concentration interval of the samples after dilution.
From the observed relatively stable concentration of dissolved prodrugs measured in the suspensions after 8-9 day up to 23 days, the solubilities of the prodrugs (Sprodrug) were determined. In this time interval, the rate of appearance of parent drug was determined and an apparent pseudo-zero-order rate constant (k0) was obtained. By assuming that the dissolution rates were much faster than the conversion of the prodrugs to the parent drug, pseudo first-order rate constants (khyd) for cleavage of the prodrugs were calculated according to: […]

A short description of data set [3]: Stability in 80% (v/v) rat serum at 37° C. The data set is classed as in vitro ADME. To be noted: pH 7.4, 80% rat serum. On the procedure: (§1) The stability of the prodrugs was determined in PBS, 80% human SF, 80% human plasma and 80% rat serum at 37° C. 10, 20 or 50 μL of prodrug solution in MeOH was added to 1.0 mL 80% rat serum, 2.5 mL 80% SF or human plasma or 10.0 mL PBS, respectively to give a final prodrug concentration corresponding to the solubility at pH 7.4 at 37° C. Samples were withdrawn at appropriate intervals depending on the rate of degradation. The samples from the biological medias were added to MeCN (1:2 (v:v)) vortexed and centrifuged (5 min, 10000 RPM) and the supernatant analyzed by HPLC. The 700 μL PBS samples were added to 100 μL PBS and mixed before analysis by HPLC. First a pilot study was performed with n=1 to find the appropriate sampling times and thereafter an experiment with n=3. The stability was determined from the decrease in the area of prodrug.

The nature of data set [4]: Stability in 80% (v/v) human plasma at 37° C. The data set is classed as in vitro ADME. To be noted: 80% plasma. On the procedure: as §1
The nature of data set [5]: pKa-value using a GLpKa meter. To be noted: 25° C. The data set is classed as physicochemical.
Data set [6] in a line: Stability in PBS pH 7.4 at 37° C. The data set is classed as physicochemical. Conditions: pH 7.4, PBS pH 7.4, 37° C. On the procedure: as §1
Data set [7] is described as follows: Stability in 80% (v/v) human SF at 37° C. The data set is classed as in vitro ADME. To be noted: 80% (v/v) human SF (synovial fluid), 80% SF batch 210513, 37° C. On the procedure:
as §1

The mark [8] stands for this setting: hydrochloride solution pH 4.35, 37° C., n = 6.

Converted amounts (≈) assume the structure as drawn. Where two headings read alike, the source gives them in different places.

As for `O=C(Cc1ccccc1Nc1c(Cl)cccc1Cl)OCCCn1ccnc1` [DPX-1-0018], in data set [1] (8 days post-dosing), the “mean joint compression thresholds compared to the vehicle group” value is “significantly increased”. For the same compound, the “reversal of osteoarthritis pain compared to vehicle treated animals” value in data set [1] is given as “significantly reversed”.
What is called pKa is the pH at which an ionisable group is half protonated. Take `Cc1ncn(CCOC(=O)Cc2ccccc2Nc2c(Cl)cccc2Cl)c1C` [DPX-1-0023]: the “S (mM)” value is reported as 0.0064 ± 0.0005 mM in data set [2] (67 mM phosphate buffer pH 7.4, 37° C., n = 6) and 7.2 ± 0.1 mM in data set [2] (setting [8]). Further, the solubility thermodynamic in data set [2] (67 mM phosphate buffer, pH 7.4, aqueous buffer, 67 mM phosphate buffer pH 7.4, 37° C., n = 6) is ~2.7 µg/mL (≈ 0.00645 mM); in data set [2] (hydrochloride solution, pH 4.35, aqueous buffer, hydrochloride solution pH 4.35, 37° C., n = 6), 3020 ± 62 µg/mL (≈ 7.22 mM). Moreover, in data set [2] (setting [8]), the “S (μg/ml)” value is 3019 µg/mL. For the same compound, in data set [2] (pH 4.35 vs pH 7.4), the “decrease of solubility from pH 4.35 to pH 7.4” value worked out at 1118 fold. The half-life at 2.7 μg/ml in data set [3] amounted to 6.1 ± 0.4 min; in data set [4], 5.1 ± 0.5 min; in data set [6] (read-out: T1/2 (days)), 0.75 days; in data set [6] (read-out: T1/2 (min)), 0.752 ± 0.114 days; in data set [7], 39.8 ± 2.8 min. In addition, the “mean joint compression thresholds compared to the vehicle group” value in data set [1] (1 day post-dosing) was “significantly increased”. Also, the “reversal of osteoarthritis pain compared to vehicle treated animals” value in data set [1] was “significantly reversed”. Also, in data set [5], the pKa was 7.92.
For the compound `O=C(O)Cc1ccccc1Nc1c(Cl)cccc1Cl` [diclofenac], the “mean joint compression thresholds compared to baseline values on day 8” value in data set [1] (10 mg/kg oral, 1 and 2 hours post-dosing) is given as “significantly increased”.
